Assay results published in ChEMBL document CHEMBL1127485, “Photoactivatable 2-(4'-azidotetrafluorophenyl)-5-tert-butyl-1,3-dithiane-bis- sulfone and related compounds as candidate irreversible probes for the GABA-gated chloride channels” (J Med Chem, 1994).

Assays:
[1] = Binding affinity towards convulsant site of the GABAA receptor was determined in bovine cortical P2 membranes using [3H]TBOB as radioligand; assay type: cell membranes
[2] = Binding affinity for convulsant site of GABA-A receptor in bovine cortical P2 membranes using [3H]TBOB as radioligand (Unstable); assay type: cell membranes, Bos taurus

Structure (SMILES)	Ki [1]	Ki [2]
CC(C)(C)C1CSC(C2=CC(=[N+]=[N-])C=C(Br)C2=O)SC1 (stereo unspecified)	2200 nM	–
CC(C)(C)C1CS(=O)(=O)C(c2cc([N+](=O)[O-])ccc2O)S(=O)(=O)C1 (stereo unspecified)	18000 nM	–
CC(C)(C)C1CSC(C2=CC(=O)C=CC2=[N+]=[N-])SC1 (stereo unspecified)	30000 nM	–
CC(C)(C)C1CSC(c2cc([N+](=O)[O-])cc(Br)c2O)SC1 (stereo unspecified)	220 nM	–
CC(C)(C)C12COC(C3=CC(=O)C(Br)=CC3=[N+]=[N-])(OC1)OC2	600 nM	–
CC(C)(C)C1CSC(C2=CC(=[N+]=[N-])C=CC2=O)SC1 (stereo unspecified)	14000 nM	–
CC(C)(C)C1CS(=O)(=O)C(c2c(F)c(F)c(N=[N+]=[N-])c(F)c2F)S(=O)(=O)C1 (stereo unspecified)	180 nM	–
CC(C)(C)C1CSC(c2ccccc2)SC1 (stereo unspecified)	250 nM	–
CC(C)(C)C12COC(c3ccc(Br)cc3)(OC1)OC2	9 nM	–
CC(C)(C)C1CSC(c2ccccc2O)SC1 (stereo unspecified)	1800 nM	–
CC(C)(C)C1CS(=O)(=O)C(c2ccccc2O)S(=O)(=O)C1 (stereo unspecified)	23900 nM	–
CC(C)(C)C1CS(=O)(=O)C(c2cc([N+](=O)[O-])cc(Br)c2O)S(=O)(=O)C1 (stereo unspecified)	530 nM	–
CC(C)(C)C1CS(=O)(=O)C(C2=CC(=[N+]=[N-])C=CC2=O)S(=O)(=O)C1 (stereo unspecified)	250000 nM	–
CC(C)(C)C1CS(=O)(=O)C(c2cc(O)ccc2[N+](=O)[O-])S(=O)(=O)C1 (stereo unspecified)	52000 nM	–
CC(C)(C)C1CSC(c2cc([N+](=O)[O-])ccc2O)SC1 (stereo unspecified)	560 nM	–
CC(C)(C)C1CSC(c2cc(O)ccc2[N+](=O)[O-])SC1 (stereo unspecified)	8000 nM	–
CC(C)(C)C1CS(=O)(=O)C(c2cc(O)c(Br)cc2[N+](=O)[O-])S(=O)(=O)C1 (stereo unspecified)	> 30000 nM	–
CC(C)(C)C1CSC(c2ccc(Br)cc2)SC1 (stereo unspecified)	280 nM	–
CC(C)(C)C1CSC(c2c(F)c(F)c(N=[N+]=[N-])c(F)c2F)SC1 (stereo unspecified)	–	Unstable
CC(C)(C)C1CS(=O)(=O)C(C2=CC(=[N+]=[N-])C=C(Br)C2=O)S(=O)(=O)C1 (stereo unspecified)	> 30000 nM	–
CC(C)(C)C1CSC(C2=CC(=O)C(Br)=CC2=[N+]=[N-])SC1 (stereo unspecified)	3600 nM	–
CC(C)(C)C1CS(=O)(=O)C(c2ccc(Br)cc2)S(=O)(=O)C1 (stereo unspecified)	3 nM	–
CC(C)(C)C1CSC(c2cc(O)c(Br)cc2[N+](=O)[O-])SC1 (stereo unspecified)	4500 nM	–
CC(C)(C)C1CS(=O)(=O)C(c2ccccc2)S(=O)(=O)C1 (stereo unspecified)	510 nM	–
CC(C)(C)C12COC(c3ccccc3O)(OC1)OC2	59 nM	–
CC(C)(C)C12COC(c3ccccc3)(OC1)OC2	18 nM	–
